Test system: MCF-7 cells
Assay: MCF-7 cell proliferation yield assay (nuclei counted after 4 days) with or without hormone
Format: cell-based, human
Settings: hormone added with the inhibitor (CDHuS, CDHA, rHA); estradiol at 100 pM; the other hormones tested against rHA, data not shown
Protocol: A clonal population of the human breast cancer MCF-7 cell line was used in some of the experiments described below. These cells were routinely grown in 5% fetal bovine serum (FBS) supplemented-Dulbecco's Modified Eagle's Medium (DME). […] Estrogen non-target, serum-insensitive human breast cancer MDA-MB231 cells (ATCC, Rockville, Md.) were used as controls; they were grown under the same conditions as MCF-7 cells.
To assess the inhibitory effect of serum or purified protein preparations, 4×10^4 cells/well were seeded in 12-well Falcon Multiplates in 5% FBS; they were allowed to attach for 24 h before exposing them to test medium. Cell proliferation yields were measured after 4 days in DME plus 25 ug transferrin (T)/ml and 100 ng insulin (I)/ml ([…]) alone, or ITDME plus CD human serum (CDHuS), or purified protein preparations. Each sample was tested in duplicate in the presence or absence of 100 pM estradiol (E2) and each experiment was repeated at least three times. Phenol red-free media were used in all experiments involving cell proliferation rates or yields. Cells were lysed and nuclei counted on a Coulter Counter Model ZM.

SMILES | reversal by hormone of the inhibitory effect on MCF-7 proliferation
C[C@]12CCC(=O)C[C@@H]1CC[C@@H]1[C@@H]2CC[C@]2(C)[C@@H](O)CC[C@@H]12 [5α-dihydrotestosterone] | failed to reverse the effect of rHA
CC(=O)[C@H]1CC[C@H]2[C@@H]3CCC4=CC(=O)CC[C@]4(C)[C@H]3CC[C@]12C [Progesterone] | failed to reverse the effect of rHA
C[C@]1(O)CC[C@H]2[C@@H]3CCC4=CC(=O)CCC4=C3C=C[C@@]21C [R1881] | failed to reverse the effect of rHA
C[C@]12CCC(=O)C=C1CC[C@@H]1[C@@H]2[C@@H](O)C[C@@]2(C)[C@H]1CC[C@]2(O)C(=O)CO [hydrocortisone] | failed to reverse the effect of rHA
N[C@@H](Cc1cc(I)c(Oc2cc(I)c(O)c(I)c2)c(I)c1)C(=O)O [thyroxine] | failed to reverse the effect of rHA

From patent US20020123080A1, “Inhibiting proliferation of cancer cells” (Tufts University, priority 1996, published 2002)
